What all share (assay type): biochemical
Experiment [1] addresses T1, human butyrylcholinesterase (hBChE) (Homo sapiens, UniProt P06276).
T1 construct: hBChE derived from purified human plasma; from tissue; host or cells: human plasma
Nature of the experiment: Progressive inhibition of hBChE by organophosphorus pesticides (Ellman method). The conditions noted are these: for kinact/KI: read-out: ki, overall second-order rate constant of inhibition (converted).

The target of experiment [2] is T2, human acetylcholinesterase (hAChE) (Homo sapiens, UniProt P22303).
T2 construct: made in house
Nature of the experiment: Progressive inhibition of hAChE by organophosphorus pesticides (Ellman method). The conditions noted are these: 25 °C, ± SEM; for kinact/KI: read-out: ki, overall second-order rate constant of inhibition (converted). A general note: DTNB colorimetry detects thiols as they appear.

In a further experiment the target is human AChE (Homo sapiens, UniProt P22303).
In experiment [3] the target is fenamiphos-inhibited hAChE (Homo sapiens, UniProt P22303).
Experiment [4] has as its target methamidophos-inhibited hAChE (Homo sapiens, UniProt P22303).

SMILES strings stand for the structures.

T1 sequence (P06276 29-602): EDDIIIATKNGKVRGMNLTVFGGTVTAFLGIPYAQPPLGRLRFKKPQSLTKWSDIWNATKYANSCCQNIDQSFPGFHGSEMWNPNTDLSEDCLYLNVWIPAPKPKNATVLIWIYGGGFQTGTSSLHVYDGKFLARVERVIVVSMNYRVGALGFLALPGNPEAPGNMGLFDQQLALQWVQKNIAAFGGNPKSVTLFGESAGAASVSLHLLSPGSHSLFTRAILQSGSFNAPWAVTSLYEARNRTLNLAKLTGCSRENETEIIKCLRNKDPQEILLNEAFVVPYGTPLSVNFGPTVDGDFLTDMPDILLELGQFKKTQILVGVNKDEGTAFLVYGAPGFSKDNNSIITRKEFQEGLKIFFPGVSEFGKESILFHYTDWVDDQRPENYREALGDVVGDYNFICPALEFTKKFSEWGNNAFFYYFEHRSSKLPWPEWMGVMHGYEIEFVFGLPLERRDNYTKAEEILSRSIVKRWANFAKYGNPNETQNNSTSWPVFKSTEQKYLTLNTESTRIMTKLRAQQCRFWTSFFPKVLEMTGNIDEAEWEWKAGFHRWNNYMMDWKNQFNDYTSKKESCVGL
Chain of methamidophos-inhibited hAChE (P22303 32-614): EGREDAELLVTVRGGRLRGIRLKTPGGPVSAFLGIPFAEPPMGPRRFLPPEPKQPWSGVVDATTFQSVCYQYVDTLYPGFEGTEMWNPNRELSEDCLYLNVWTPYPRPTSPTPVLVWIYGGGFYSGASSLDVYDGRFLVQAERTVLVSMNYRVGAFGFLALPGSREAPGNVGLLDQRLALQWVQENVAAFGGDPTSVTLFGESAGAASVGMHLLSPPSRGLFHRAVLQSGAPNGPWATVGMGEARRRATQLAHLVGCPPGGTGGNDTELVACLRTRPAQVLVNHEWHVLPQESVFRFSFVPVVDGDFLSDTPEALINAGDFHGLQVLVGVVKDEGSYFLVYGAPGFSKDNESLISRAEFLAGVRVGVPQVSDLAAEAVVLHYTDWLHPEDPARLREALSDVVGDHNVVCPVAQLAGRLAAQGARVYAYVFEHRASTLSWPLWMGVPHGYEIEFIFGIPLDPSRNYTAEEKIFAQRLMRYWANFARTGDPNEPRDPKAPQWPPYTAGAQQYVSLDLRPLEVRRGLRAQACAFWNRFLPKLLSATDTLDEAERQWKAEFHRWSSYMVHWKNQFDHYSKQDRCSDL
Chain of fenamiphos-inhibited hAChE (P22303 32-614): as above
Chain of human AChE (P22303 32-614): as above
T2 sequence (P22303 32-614): as above

The Ki is the dissociation constant of the complex between target and ligand, obtained from inhibition or displacement. High values mean weaker binding, low ones tighter binding. In experiment [1], `CCCSP(=O)(OCC)SCCC` [Ethoprophos, ethoprophos] came in with a Ki of 36.4 ± 6.68 µM. Also, the “kmax, first-order inhibition constant” value in experiment [1] (hBChE, 25 °C, ± SEM) was 0.58 ± 0.05 min⁻¹.
For `CCOP(=O)(NC(C)C)Oc1ccc(SC)c(C)c1` (stereo not shown) [Fenamiphos, fenamiphos], the “ki, overall second-order rate constant of inhibition” value in experiment [1] (hBChE, 25 °C, ± SEM) is on record as 35,890 ± 8,484 min^-1 M^-1; in experiment [2], 3,982 ± 264 min^-1 M^-1. Further, the “kmax, first-order inhibition constant” value came out at 0.16 ± 0.01 min⁻¹ in experiment [1] (hBChE, 25 °C, ± SEM) and 0.21 ± 0.01 min⁻¹ in experiment [2].
With `COP(N)(=O)SC` (stereo not shown) [Methamidophos, methamidophos], in experiment [1] (hBChE), the “ki lower than that of fenamiphos” value is listed as 90 fold. The kinact/KI is 6.43 M⁻¹ s⁻¹ in experiment [1] (hBChE, 25 °C, ± SEM) and 46 M⁻¹ s⁻¹ in experiment [2].
Consider `C[n+]1ccccc1C=NO` [Oxime 2-PAM], for which the “Inhibition of AChE with oxime” value on human AChE is 11%. For the same compound, in experiment [3], the “Reactmax (screening)” value worked out at 46%; the “Reactmax, maximal percentage of reactivation” value (“Reactmax, maximal percentage” below) was found to be 70%; the “k2, maximal first-order reactivation rate constant” value came out at 0.003 ± 0.0002 min⁻¹; the “kobs, observed reactivation rate (screening)” value (“kobs … (screening)” for short) is on record as 0.0011 min -1. Further, in experiment [3], the “kr, overall second-order reactivation rate constant” value is 0.125 ± 0.025 M⁻¹ s⁻¹ and the “t, time to achieve maximum of reactivation (screening)” value (from here on “t, time to achieve maximum”) is given as 20 h. For the same compound, in experiment [4], the “Reactmax (screening)” value was determined as 86%; the “Reactmax, maximal percentage” value was found to be 80%; the “k2, maximal first-order reactivation rate constant” value was found to be 2.7 ± 0.2 min⁻¹; the “kobs … (screening)” value came out at 1.1558 min -1. In experiment [4], the “kr, overall second-order reactivation rate constant” value is listed as 42,190 ± 2,547 min^−1 M^−1 and the “t, time to achieve maximum” value was determined as 0.36 h.
As to `ON=Cc1cc[n+](CCn2cc(C[n+]3ccccc3C=NO)nn2)cc1` [Oxime 14A], the “Inhibition of AChE with oxime” value at human AChE came to 10%. Moreover, in experiment [3], the “Reactmax (screening)” value is recorded as 42%; the “Reactmax, maximal percentage” value is given as 45%; the “k2, maximal first-order reactivation rate constant” value is 0.069 ± 0.034 min⁻¹; the “kobs … (screening)” value was 0.0062 min -1. Besides, in experiment [3], the “kr, overall second-order reactivation rate constant” value worked out at 1.43 ± 0.413 M⁻¹ s⁻¹ and the “t, time to achieve maximum” value turned out to be 3 h. In addition, in experiment [4], the “Reactmax (screening)” value is given as 68%; the “Reactmax, maximal percentage” value is reported as 85%; the “k2, maximal first-order reactivation rate constant” value turned out to be 22.2 ± 3.8 min⁻¹; the “kobs … (screening)” value was 6.7944 min -1. Moreover, in experiment [4], the “kr, overall second-order reactivation rate constant” value was 108,300 ± 17,090 min^−1 M^−1 and the “t, time to achieve maximum” value was found to be 0.08 h.
In experiment [1], `CCOP(=S)(OCC)SCn1c(=O)oc2cc(Cl)ccc21` [Phosalone, phosalone] came in with a Ki of 97.9 ± 15.3 µM. Further, in experiment [1] (hBChE, 25 °C, ± SEM), the “kmax, first-order inhibition constant” value is 0.23 ± 0.02 min⁻¹ and the kinact/KI was 38.9 M⁻¹ s⁻¹. For the same compound, the kinact/KI in experiment [2] was 35.5 M⁻¹ s⁻¹.
As to `ON=Cc1cc[n+](CCC[n+]2ccc(C=NO)cc2)cc1` [TMB-4], the “Inhibition of AChE with oxime” value at human AChE is 8%. For the same compound, in experiment [3], the “Reactmax (screening)” value came to 49%; the “Reactmax, maximal percentage” value turned out to be 65%; the “k2, maximal first-order reactivation rate constant” value came out at 0.082 ± 0.010 min⁻¹; the “kobs … (screening)” value is on record as 0.0177 min -1. Besides, in experiment [3], the “kr, overall second-order reactivation rate constant” value turned out to be 2.237 ± 0.293 M⁻¹ s⁻¹ and the “t, time to achieve maximum” value is 1 h. In experiment [4], the “Reactmax (screening)” value was found to be 83%; the “Reactmax, maximal percentage” value is on record as 80%; the “k2, maximal first-order reactivation rate constant” value amounted to 16.5 ± 6.6 min⁻¹; the “kobs … (screening)” value was 4.2338 min -1. In addition, in experiment [4], the “kr, overall second-order reactivation rate constant” value is recorded as 116,600 ± 12,380 min^−1 M^−1 and the “t, time to achieve maximum” value is 0.16 h.

For the origin of these results see article PMC8563940 (Scientific Reports, 2021).
